Laboratory results published in US20260109694A1, “HETEROCYCLIC COMPOUNDS AND USES THEREOF” (Kumquat Biosciences Inc., priority 2023, published 2026).

What was measured:
PTP1B = target: T1, PTP1B (Homo sapiens, UniProt P18031); experiment: Phosphatase activity assay (DiFMUP substrate); type: biochemical; details: value bin printed in column head
T1 sequence (P18031 1-435): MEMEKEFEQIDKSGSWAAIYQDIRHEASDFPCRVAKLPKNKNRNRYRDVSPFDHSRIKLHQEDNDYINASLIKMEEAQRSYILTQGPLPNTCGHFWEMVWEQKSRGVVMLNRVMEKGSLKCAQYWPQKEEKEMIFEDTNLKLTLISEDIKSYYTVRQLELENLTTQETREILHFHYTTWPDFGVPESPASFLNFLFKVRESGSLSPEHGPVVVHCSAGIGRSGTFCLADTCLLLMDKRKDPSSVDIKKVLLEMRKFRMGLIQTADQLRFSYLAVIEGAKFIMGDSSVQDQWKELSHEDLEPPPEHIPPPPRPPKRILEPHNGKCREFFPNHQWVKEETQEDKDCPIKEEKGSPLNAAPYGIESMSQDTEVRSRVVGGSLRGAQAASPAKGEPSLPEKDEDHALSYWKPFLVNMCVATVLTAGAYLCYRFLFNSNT
Procedure: (§1) The selectivity and potency of a small molecule PTPN2 inhibitor as provided herein against one or more protein tyrosine phosphatase (PTP) enzymes, and specifically against PTPN2, is assessed in various ways. The one or more PTP enzymes comprise Mycobacterium protein tyrosine phosphatase A (mPTPA), Mycobacterium protein tyrosine phosphatase B (mPTPB), PTPN1 (i.e., PTP1B), PTPN2 (i.e., TC-PTP), PTPN22 (i.e., LYP), SHP-1, SHP-2, FAP-1, Meg2, HePTP, Laforin, VHX, VHR, LMWPTP, Cdc14A, LAR, CD45, PTPRG, a fragment thereof, a variant thereof, and a combination thereof. Selectivity and potency of a small molecule PTPN2 inhibitor is evaluated using a PTP activity inhibition assay. The assay is performed using a buffer comprising 50 mM HEPES buffer pH 7.5, 150 mM NaCl, 0.5 mM EDTA, 1 mM DTT, 0.001% Tween-20.
(§2) The assay is performed using a phosphated substrate, e.g., 10 mM 6,8-Difluoro-4-Methylumbelliferyl Phosphate (DIFMUP) that is stored at −20° C. Alternatively or in addition to, the assay is performed using other phosphated substrate (e.g., fluorescein diphosphate). Each PTP enzyme is diluted in the assay buffer
(§3) The assay can be carried out at room temperature in multiplate format, e.g., using 384 well plates. A small molecule PTPN2 inhibitor dissolved in DMSO at one of 10 concentrations from a serial dilution or DMSO alone for control is added to each well. A mixture of the assay buffer comprising PTP enzyme (e.g., 0.025 ng/ul PTPN2) is added to each well and mixed for approximately 2 minutes. The reaction is initiated by adding DiFMUP diluted in the assay buffer to a final concentration of approximately 45 µM DiFMUP in PTPN2 assay. For each PTP enzyme, DiFMUP is added at the Km (Michaelis constant) of the enzyme that had been independently determined. The phosphatase activity of the PTP enzyme is assessed by monitoring appearance of a fluorescent product (6,8-difluoro-7-hydroxyl-4-coumarin (DiFMU) from DiFMUP) continuously for about 15 to 30 minutes, using the INFINITE M1000Pro plate reader (Tecan) with excitation at 360 nm and emission at 450 nm (cutoff filter at 435 nm) for DiFMU. Each assay is performed at least in duplicate. The rate (e.g., the initial rate) of DiFMU formation is plotted against the concentration of the small molecule PTPN2 inhibitor, and the data is fitted (e.g., using a 4-parameter equation) to determine the inflection point of the fit as the IC50 of the small molecule PTPN2 inhibitor for a specific enzyme. Utilizing this assay, the ability of the compounds in Table 1 to inhibit PTPN2 and PTP1B has been assessed. Table 3 summarizes the IC50 values.

PTPN2 = target: T2, PTPN2 (Homo sapiens, UniProt P17706); experiment: Phosphatase activity assay (DiFMUP substrate); type: biochemical; details: value bin printed in column head
T2 sequence (P17706 1-415): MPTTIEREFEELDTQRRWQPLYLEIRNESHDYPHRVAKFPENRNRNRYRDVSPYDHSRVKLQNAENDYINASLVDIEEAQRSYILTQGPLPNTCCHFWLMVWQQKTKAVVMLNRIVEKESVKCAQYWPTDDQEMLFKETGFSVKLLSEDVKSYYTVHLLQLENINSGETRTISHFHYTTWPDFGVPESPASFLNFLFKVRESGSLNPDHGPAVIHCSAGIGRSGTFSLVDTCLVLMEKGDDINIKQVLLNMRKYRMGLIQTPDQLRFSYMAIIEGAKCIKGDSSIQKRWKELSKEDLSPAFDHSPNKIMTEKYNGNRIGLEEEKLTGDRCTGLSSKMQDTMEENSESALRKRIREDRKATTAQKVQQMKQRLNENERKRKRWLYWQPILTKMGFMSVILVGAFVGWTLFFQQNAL
Procedure: as §1, §2, §3

SMILES | IC50 (PTP1B) | IC50 (PTPN2)
CC(OC(=O)C(C)C)OC(=O)N1CC(c2ccc(O)c(N3CC(=O)NS3(=O)=O)c2F)=C[C@H]1CCC1CC1 (mixture of isomers) [Compound 111, 1-(isobutyryloxy)ethyl (2R)-2-(2-cyclopropylethyl)-4-(3-(1,1-dioxido-4-oxo-1,2,5-thiadiazolidin-2-yl)-2-fluoro-4-hydroxyphenyl)-2,5-dihydro-1H-pyrrole-1-carboxylate] | ≤ 1 µM | ≤ 1 µM
O=C1CN(c2c(O)ccc(C3=CC(CCC4CCC4)NC3)c2F)S(=O)(=O)N1 (racemic) [Compound 106, 5-(3-(5-(2-cyclobutylethyl)-2,5-dihydro-1H-pyrrol-3-yl)-2-fluoro-6-hydroxyphenyl)-1,2,5-thiadiazolidin-3-one 1,1-dioxide] | ≤ 1 µM | ≤ 1 µM
O=C1CN(c2c(O)ccc(C3=C[C@@H](C=CC4CC4)NC3)c2F)S(=O)(=O)N1 (single isomer, unassigned) [Compound 102, (R,E)-5-(3-(5-(2-cyclopropylvinyl)-2,5-dihydro-1H-pyrrol-3-yl)-2-fluoro-6-hydroxyphenyl)-1,2,5-thiadiazolidin-3-one 1,1-dioxide or (R,Z)-5-(3-(5-(2-cyclopropylvinyl)-2,5-dihydro-1H-pyrrol-3-yl)-2-fluoro-6-hydroxyphenyl)-1,2,5-thiadiazolidin-3-one 1,1-dioxide] | ≤ 1 µM | ≤ 1 µM
O=C1CN(c2c(O)ccc(C3=CC(CCC4CCCC4)NC3)c2F)S(=O)(=O)N1 (stereo not shown) [Compound 101, 5-(3-(5-(2-cyclopentylethyl)-2,5-dihydro-1H-pyrrol-3-yl)-2-fluoro-6-hydroxyphenyl)-1,2,5-thiadiazolidin-3-one 1,1-dioxide] | ≤ 1 µM | ≤ 1 µM
O=C1CN(c2c(O)ccc(CC3CNC3)c2F)S(=O)(=O)N1 [Compound 103, 5-(3-(azetidin-3-ylmethyl)-2-fluoro-6-hydroxyphenyl)-1,2,5-thiadiazolidin-3-one 1,1-dioxide] | ≤ 1 µM | ≤ 1 µM
CC1(CCC2C=C(c3ccc(O)c(N4CC(=O)NS4(=O)=O)c3F)CN2)CC1 (stereo not shown) [Compound 104, 5-(2-fluoro-6-hydroxy-3-(5-(2-(1-methylcyclopropyl)ethyl)-2,5-dihydro-1H-pyrrol-3-yl)phenyl)-1,2,5-thiadiazolidin-3-one 1,1-dioxide] | ≤ 1 µM | ≤ 1 µM
O=C1CN(c2c(O)cc(C3=CC(CCC4CC4)NC3)cc2F)S(=O)(=O)N1 (stereo not shown) [Compound 105, 5-(4-(5-(2-cyclopropylethyl)-2,5-dihydro-1H-pyrrol-3-yl)-2-fluoro-6-hydroxyphenyl)-1,2,5-thiadiazolidin-3-one 1,1-dioxide] | ≤ 1 µM | ≤ 1 µM
N#CCC1C=C(c2ccc(O)c(N3CC(=O)NS3(=O)=O)c2F)CN1 (stereo not shown) [Compound 107, 2-(4-(3-(1,1-dioxido-4-oxo-1,2,5-thiadiazolidin-2-yl)-2-fluoro-4-hydroxyphenyl)-2,5-dihydro-1H-pyrrol-2-yl)acetonitrile] | ≤ 1 µM | ≤ 1 µM
CC1(C2C=C(c3ccc(O)c(N4CC(=O)NS4(=O)=O)c3F)CN2)CC1 (stereo not shown) [Compound 108, 5-(2-fluoro-6-hydroxy-3-(5-(1-methylcyclopropyl)-2,5-dihydro-1H-pyrrol-3-yl)phenyl)-1,2,5-thiadiazolidin-3-one 1,1-dioxide] | > 1 µM | ≤ 1 µM
O=C1CN(c2c(O)ccc(C3=CC(C4CC4)NC3)c2F)S(=O)(=O)N1 (stereo not shown) [Compound 109, 5-(3-(5-cyclopropyl-2,5-dihydro-1H-pyrrol-3-yl)-2-fluoro-6-hydroxyphenyl)-1,2,5-thiadiazolidin-3-one 1,1-dioxide] | ≤ 1 µM | ≤ 1 µM
CC(C)(C)CC[C@@H]1C=C(c2ccc(O)c(N3CC(=O)NS3(=O)=O)c2F)CN1 [Compound 110, (R)-5-(3-(5-(3,3-dimethylbutyl)-2,5-dihydro-1H-pyrrol-3-yl)-2-fluoro-6-hydroxyphenyl)-1,2,5-thiadiazolidin-3-one 1,1-dioxide] | ≤ 1 µM | ≤ 1 µM
NC1CCCC1c1ccc(O)c(N2CC(=O)NS2(=O)=O)c1F (stereo not shown) [Compound 112, 5-(3-(2-aminocyclopentyl)-2-fluoro-6-hydroxyphenyl)-1,2,5-thiadiazolidin-3-one 1,1-dioxide] | > 1 µM | > 1 µM
O=C1CN(c2c(O)ccc(C3=C[C@@H](CCC4CC4)NC3)c2F)S(=O)(=O)N1 [Compound 113, (R)-5-(3-(5-(2-cyclopropylethyl)-2,5-dihydro-1H-pyrrol-3-yl)-2-fluoro-6-hydroxyphenyl)-1,2,5-thiadiazolidin-3-one 1,1-dioxide] | ≤ 1 µM | ≤ 1 µM
CCC[C@@H]1C=C(c2ccc(O)c(N3CC(=O)NS3(=O)=O)c2F)CN1 [Compound 114, (R)-5-(2-fluoro-6-hydroxy-3-(5-propyl-2,5-dihydro-1H-pyrrol-3-yl)phenyl)-1,2,5-thiadiazolidin-3-one 1,1-dioxide] | ≤ 1 µM | ≤ 1 µM
CC1(C)CC1CCC1C=C(c2ccc(O)c(N3CC(=O)NS3(=O)=O)c2F)CN1 (stereo not shown) [Compound 115, 5-(3-(5-(2-(2,2-dimethylcyclopropyl)ethyl)-2,5-dihydro-1H-pyrrol-3-yl)-2-fluoro-6-hydroxyphenyl)-1,2,5-thiadiazolidin-3-one 1,1-dioxide] | ≤ 1 µM | ≤ 1 µM
O=C1CN(c2c(O)ccc(C3=C[C@@H](CCC4CCC4)NC3)c2F)S(=O)(=O)N1 [Compound 116, (R)-5-(3-(5-(2-cyclobutylethyl)-2,5-dihydro-1H-pyrrol-3-yl)-2-fluoro-6-hydroxyphenyl)-1,2,5-thiadiazolidin-3-one 1,1-dioxide] | ≤ 1 µM | ≤ 1 µM
CC1CC1C1C=C(c2ccc(O)c(N3CC(=O)NS3(=O)=O)c2F)CN1 (stereo not shown) [Compound 117, 5-(2-fluoro-6-hydroxy-3-(5-(2-methylcyclopropyl)-2,5-dihydro-1H-pyrrol-3-yl)phenyl)-1,2,5-thiadiazolidin-3-one 1,1-dioxide] | ≤ 1 µM | ≤ 1 µM
CC1=C(c2ccc(O)c(N3CC(=O)NS3(=O)=O)c2F)CNC1C (stereo not shown) [Compound 118, 5-(3-(4,5-dimethyl-2,5-dihydro-1H-pyrrol-3-yl)-2-fluoro-6-hydroxyphenyl)-1,2,5-thiadiazolidin-3-one 1,1-dioxide] | > 1 µM | > 1 µM
N#CCCCC1C=C(c2ccc(O)c(N3CC(=O)NS3(=O)=O)c2F)CN1 (stereo not shown) [Compound 119, 4-(4-(3-(1,1-dioxido-4-oxo-1,2,5-thiadiazolidin-2-yl)-2-fluoro-4-hydroxyphenyl)-2,5-dihydro-1H-pyrrol-2-yl)butanenitrile] | ≤ 1 µM | ≤ 1 µM
CC(C)(C)CC[C@H]1C=C(c2ccc(O)c(N3CC(=O)NS3(=O)=O)c2F)CN1 [Compound 120, (S)-5-(3-(5-(3,3-dimethylbutyl)-2,5-dihydro-1H-pyrrol-3-yl)-2-fluoro-6-hydroxyphenyl)-1,2,5-thiadiazolidin-3-one 1,1-dioxide] | ≤ 1 µM | ≤ 1 µM
